Like-named read-outs stand apart in the source and are kept apart here.

Results on five compounds are retold here after patent US20050065062A1, “Method of formulating a pharmaceutical composition” (3M Innovative Properties Company, priority 2003, published 2005).

A short description of data set [1]: Franz diffusion cell, membrane diffusion across poly(dimethylsiloxane) membrane. Particulars: for relative order for membrane diffusion rate: ranking of excipients.
A short description of data set [2]: Franz diffusion cell, membrane diffusion across hairless mouse skin. It counts as in vitro ADME. Particulars: for relative order for membrane diffusion rate: ranking of excipients. The protocol: Diffusion of the compounds through hairless mouse skin into phosphate buffer in a Franz cell was carried out and measured as described in Example 1, with Sudan I being used in place of Fat Brown RR.

The conditions of data set [3]: 0 h.
Setting [4] is: saturated solution in alpha-terpineol, 0 hours.
Where [5] appears, read: saturated solution in alpha-terpineol, 24 hours.
[6] abbreviates: saturated solution in isostearic acid, 0 hours.
[7] abbreviates: saturated solution in isostearic acid, 24 hours.
Setting [8] is: saturated solution in propylene glycol, 0 hours.
Where [9] appears, read: saturated solution in propylene glycol, 24 hours.
Where [10] appears, read: saturated solution in tetraglycol, 0 hours.
The mark [11] stands for this setting: saturated solution in tetraglycol, 24 hours.
[12] abbreviates: saturated solution in alpha-terpineol, 6 hours.
[13] abbreviates: saturated solution in alpha-terpineol, 12 hours.
Where [14] appears, read: saturated solution in alpha-terpineol, 18 hours.
Setting [15] is: saturated solution in isostearic acid, 6 hours.
Setting [16] is: saturated solution in isostearic acid, 12 hours.
The mark [17] stands for this setting: saturated solution in isostearic acid, 18 hours.
[18] abbreviates: saturated solution in propylene glycol, 6 hours.
The mark [19] stands for this setting: saturated solution in propylene glycol, 12 hours.
Setting [20] is: saturated solution in propylene glycol, 18 hours.
Where [21] appears, read: saturated solution in tetraglycol, 6 hours.
[22] abbreviates: saturated solution in tetraglycol, 12 hours.
Setting [23] is: saturated solution in tetraglycol, 18 hours.
Setting [24] is: Table 3, saturated solution in alpha-terpineol, 0 hours.
Where [25] appears, read: Table 3, saturated solution in alpha-terpineol, 24 hours.
[26] abbreviates: Table 3, saturated solution in isostearic acid, 0 hours.
[27] abbreviates: Table 3, saturated solution in isostearic acid, 24 hours.
Where [28] appears, read: Table 3, saturated solution in propylene glycol, 0 hours.
The mark [29] stands for this setting: Table 3, saturated solution in propylene glycol, 24 hours.
Where [30] appears, read: Table 3, saturated solution in tetraglycol, 0 hours.
Setting [31] is: Table 3, saturated solution in tetraglycol, 24 hours.

Turning to `CCN(CCO)c1ccc(N=Nc2ccc([N+](=O)[O-])cc2)cc1` [Disperse Red 1], the “relative order for membrane diffusion rate” value (“relative order” for short) in data set [1] was “alpha-terpineol>isostearic acid>tetraglycol”. Moreover, the “CUMULATIVE AMOUNT OF COMPOUND DIFFUSED ACROSS SKIN” value in data set [1] (setting [4]) is reported as 0 μg/10 mL; in data set [1] (setting [5]) it was 11 μg/10 mL; in data set [1] (saturated solution in alpha-terpineol, 48 hours), 25 μg/10 mL; in data set [1] (saturated solution in alpha-terpineol, 72 hours) it was 45 μg/10 mL; in data set [1] (setting [6]), 0 μg/10 mL; in data set [1] (setting [7]), 3 μg/10 mL. Further, the “CUMULATIVE AMOUNT OF COMPOUND DIFFUSED ACROSS SKIN” value in data set [1] (saturated solution in isostearic acid, 48 hours) is 6 μg/10 mL; in data set [1] (saturated solution in isostearic acid, 72 hours), 12 μg/10 mL; in data set [1] (setting [8]) it was 0 μg/10 mL; in data set [1] (setting [9]) it was 1 μg/10 mL; in data set [1] (saturated solution in propylene glycol, 48 hours), 4 μg/10 mL; in data set [1] (saturated solution in propylene glycol, 72 hours), 10 μg/10 mL. The “CUMULATIVE AMOUNT OF COMPOUND DIFFUSED ACROSS SKIN” value in data set [1] (setting [10]) was 0 μg/10 mL; in data set [1] (setting [11]), 1 μg/10 mL; in data set [1] (saturated solution in tetraglycol, 48 hours), 3 μg/10 mL; in data set [1] (saturated solution in tetraglycol, 72 hours), 6 μg/10 mL.

Take `Nc1ccc(N=Nc2cccc3ccccc23)c(N)c1` [Fat Brown RR]: in data set [2], the “relative order” value is reported as “alpha-terpineol>propylene glycol>isostearic acid>tetraglycol”. The “CUMULATIVE AMOUNT OF COMPOUND DIFFUSED ACROSS SKIN” value in data set [2] (setting [4]) was determined as 0 µg/mL; in data set [2] (setting [12]), 168 µg/mL; in data set [2] (setting [13]), 444 µg/mL; in data set [2] (setting [14]) it was 812 µg/mL; in data set [2] (setting [5]), 1162 µg/mL; in data set [2] (setting [6]), 0 µg/mL. Further, the “CUMULATIVE AMOUNT OF COMPOUND DIFFUSED ACROSS SKIN” value is 41 µg/mL in data set [2] (setting [15]); 92 µg/mL in data set [2] (setting [16]); 169 µg/mL in data set [2] (setting [17]); 262 µg/mL in data set [2] (setting [7]); 0 µg/mL in data set [2] (setting [8]); 84 µg/mL in data set [2] (setting [18]). The “CUMULATIVE AMOUNT OF COMPOUND DIFFUSED ACROSS SKIN” value worked out at 221 µg/mL in data set [2] (setting [19]); 445 µg/mL in data set [2] (setting [20]); 677 µg/mL in data set [2] (setting [9]); 0 µg/mL in data set [2] (setting [10]); 13 µg/mL in data set [2] (setting [21]); 25 µg/mL in data set [2] (setting [22]). The “CUMULATIVE AMOUNT OF COMPOUND DIFFUSED ACROSS SKIN” value in data set [2] (setting [23]) is 39 µg/mL; in data set [2] (setting [11]), 52 µg/mL.

As to `Oc1ccc2ccccc2c1N=Nc1ccccc1` [Sudan I], the “CUMULATIVE AMOUNT OF COMPOUND DIFFUSED ACROSS SKIN” value in data set [2] (setting [24]) was 0 μg/10 mL; in data set [2] (setting [25]), 72 μg/10 mL; in data set [2] (Table 3, saturated solution in alpha-terpineol, 50 hours), 201 μg/10 mL; in data set [2] (Table 3, saturated solution in alpha-terpineol, 59 hours), 259 μg/10 mL; in data set [2] (setting [26]), 0 μg/10 mL; in data set [2] (setting [27]), 38 μg/10 mL. In addition, the “CUMULATIVE AMOUNT OF COMPOUND DIFFUSED ACROSS SKIN” value in data set [2] (Table 3, saturated solution in isostearic acid, 50 hours) was determined as 118 μg/10 mL; in data set [2] (Table 3, saturated solution in isostearic acid, 59 hours), 149 μg/10 mL; in data set [2] (setting [28]), 0 μg/10 mL; in data set [2] (setting [29]), 31 μg/10 mL; in data set [2] (Table 3, saturated solution in propylene glycol, 50 hours) it was 108 μg/10 mL; in data set [2] (Table 3, saturated solution in propylene glycol, 59 hours), 142 μg/10 mL. For the same compound, the “CUMULATIVE AMOUNT OF COMPOUND DIFFUSED ACROSS SKIN” value is reported as 0 μg/10 mL in data set [2] (setting [30]); 11 μg/10 mL in data set [2] (setting [31]); 61 μg/10 mL in data set [2] (Table 3, saturated solution in tetraglycol, 50 hours); 81 μg/10 mL in data set [2] (Table 3, saturated solution in tetraglycol, 59 hours). Besides, in data set [2], the “relative order” value is “alpha-terpineol>tetraglycol”.

For `C[C@]12CC[C@H]3[C@@H](CCC4=CC(=O)CC[C@@]43C)[C@@H]1CC[C@@H]2O` [Testosterone, testosterone], the “CUMULATIVE AMOUNT OF COMPOUND DIFFUSED ACROSS SKIN” value was 0 μg/10 mL in data set [2] (setting [24]); 605 μg/10 mL in data set [2] (Table 3, saturated solution in alpha-terpineol, 6 hours); 1585 μg/10 mL in data set [2] (Table 3, saturated solution in alpha-terpineol, 12 hours); 3043 μg/10 mL in data set [2] (Table 3, saturated solution in alpha-terpineol, 18 hours); 4414 μg/10 mL in data set [2] (setting [25]); 0 μg/10 mL in data set [2] (setting [26]). Besides, the “CUMULATIVE AMOUNT OF COMPOUND DIFFUSED ACROSS SKIN” value in data set [2] (Table 3, saturated solution in isostearic acid, 6 hours) is 74 μg/10 mL; in data set [2] (Table 3, saturated solution in isostearic acid, 12 hours) it was 192 μg/10 mL; in data set [2] (Table 3, saturated solution in isostearic acid, 18 hours) it was 418 μg/10 mL; in data set [2] (setting [27]), 740 μg/10 mL; in data set [2] (setting [28]), 0 μg/10 mL; in data set [2] (Table 3, saturated solution in propylene glycol, 6 hours), 79 μg/10 mL. Further, the “CUMULATIVE AMOUNT OF COMPOUND DIFFUSED ACROSS SKIN” value in data set [2] (Table 3, saturated solution in propylene glycol, 12 hours) is 216 μg/10 mL; in data set [2] (Table 3, saturated solution in propylene glycol, 18 hours) it was 546 μg/10 mL; in data set [2] (setting [29]), 956 μg/10 mL; in data set [2] (setting [30]), 0 μg/10 mL; in data set [2] (Table 3, saturated solution in tetraglycol, 6 hours) it was 23 μg/10 mL; in data set [2] (Table 3, saturated solution in tetraglycol, 12 hours), 46 μg/10 mL. Moreover, the “CUMULATIVE AMOUNT OF COMPOUND DIFFUSED ACROSS SKIN” value in data set [2] (Table 3, saturated solution in tetraglycol, 18 hours) was determined as 81 μg/10 mL; in data set [2] (setting [31]), 119 μg/10 mL; in data set [2] (setting [4]), 0 µg/mL; in data set [2] (setting [12]) it was 605 µg/mL; in data set [2] (setting [13]) it was 1585 µg/mL; in data set [2] (setting [14]) it was 3043 µg/mL. For the same compound, the “CUMULATIVE AMOUNT OF COMPOUND DIFFUSED ACROSS SKIN” value in data set [2] (setting [5]) was found to be 4414 µg/mL; in data set [2] (setting [6]), 0 µg/mL; in data set [2] (setting [15]), 74 µg/mL; in data set [2] (setting [16]) it was 192 µg/mL; in data set [2] (setting [17]), 418 µg/mL; in data set [2] (setting [7]), 740 µg/mL. Moreover, the “CUMULATIVE AMOUNT OF COMPOUND DIFFUSED ACROSS SKIN” value was 0 µg/mL in data set [2] (setting [8]); 79 µg/mL in data set [2] (setting [18]); 216 µg/mL in data set [2] (setting [19]); 546 µg/mL in data set [2] (setting [20]); 956 µg/mL in data set [2] (setting [9]); 0 µg/mL in data set [2] (setting [10]). Also, the “CUMULATIVE AMOUNT OF COMPOUND DIFFUSED ACROSS SKIN” value in data set [2] (setting [21]) amounted to 23 µg/mL; in data set [2] (setting [22]), 46 µg/mL; in data set [2] (setting [23]), 81 µg/mL; in data set [2] (setting [11]) it was 119 µg/mL. In addition, the “relative order” value in data set [2] is “alpha-terpineol>propylene glycol>isostearic acid>tetraglycol”.

On to `C#C[C@]1(O)CC[C@H]2[C@@H]3CCC4=CC(=O)CC[C@@H]4[C@H]3CC[C@@]21CC` [levonorgestrel], for which the “relative order” value in data set [1] is recorded as “alpha-terpineol>isostearic acid>tetraglycol”. In data set [3], the “CUMULATIVE AMOUNT OF COMPOUND DIFFUSED ACROSS SKIN” value is listed as 0 μg/10 mL.
